Laboratory results as given in paper PMC4137556 (Biochimica et biophysica acta, 2013).
Positions of bridges follow the written chain, without caps; N, C: chain ends. Non-standard residues stand in square brackets, D forms with d. Residues, ends and D or L forms follow the SMILES beside them. pGlu = O=C1CC[C@@H](C(=O)O)N1

Tests used:
[1] = tested on: neuraminidase from recombinant influenza A virus H1N1; experiment: Neuraminidase inhibition; format: biochemical; settings: recombinant influenza A virus H1N1 enzyme; up to 50 μM
[2] = tested on: neuraminidase from Arthrobacter ureafaciens; experiment: Neuraminidase inhibition; format: biochemical; settings: Arthrobacter ureafaciens enzyme; up to 50 μM
[3] = tested on: murine cerebrocortical neuron cells; experiment: Effect on neuronal Ca2+ oscillations, peptide alone; format: cell-based, mouse; settings: ASPA alone, without veratridine
[4] = tested on: chicks; experiment: Toxicity in chicks; format: in vivo; settings: i.c.v. 60 μg/g
[5] = target: T1, thermolysin (Bacillus thermoproteolyticus, UniProt P00800); experiment: Proteolytic stability against thermolysin; format: in vitro ADME; settings: thermolysin from Bacillus thermoprotelyticus rokko; 65 °C, up to 12 h
T1 sequence (P00800 233-548): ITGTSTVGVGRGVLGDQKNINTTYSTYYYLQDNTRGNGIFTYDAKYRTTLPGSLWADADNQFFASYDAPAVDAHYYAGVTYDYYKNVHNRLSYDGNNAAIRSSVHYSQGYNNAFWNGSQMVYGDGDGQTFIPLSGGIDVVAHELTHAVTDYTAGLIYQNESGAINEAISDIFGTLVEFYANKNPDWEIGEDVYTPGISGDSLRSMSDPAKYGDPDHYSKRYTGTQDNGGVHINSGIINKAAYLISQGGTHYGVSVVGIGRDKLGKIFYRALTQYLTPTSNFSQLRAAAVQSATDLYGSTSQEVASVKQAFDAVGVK

[6] = target: voltage-gated Ca2+ (Cav1.2) channel (Homo sapiens, UniProt Q13936); experiment: Voltage-gated Ca2+ channel inhibition/activation; format: cell-based; settings: ASPA administered alone, up to micromolar concentrations
[7] = target: T2, neuraminidase from Micromonospora viridifaciens (Micromonospora viridifaciens, UniProt Q02834); experiment: Neuraminidase inhibition; format: biochemical; settings: Micromonospora viridifaciens enzyme; up to 50 μM
T2 sequence (Q02834 38-647): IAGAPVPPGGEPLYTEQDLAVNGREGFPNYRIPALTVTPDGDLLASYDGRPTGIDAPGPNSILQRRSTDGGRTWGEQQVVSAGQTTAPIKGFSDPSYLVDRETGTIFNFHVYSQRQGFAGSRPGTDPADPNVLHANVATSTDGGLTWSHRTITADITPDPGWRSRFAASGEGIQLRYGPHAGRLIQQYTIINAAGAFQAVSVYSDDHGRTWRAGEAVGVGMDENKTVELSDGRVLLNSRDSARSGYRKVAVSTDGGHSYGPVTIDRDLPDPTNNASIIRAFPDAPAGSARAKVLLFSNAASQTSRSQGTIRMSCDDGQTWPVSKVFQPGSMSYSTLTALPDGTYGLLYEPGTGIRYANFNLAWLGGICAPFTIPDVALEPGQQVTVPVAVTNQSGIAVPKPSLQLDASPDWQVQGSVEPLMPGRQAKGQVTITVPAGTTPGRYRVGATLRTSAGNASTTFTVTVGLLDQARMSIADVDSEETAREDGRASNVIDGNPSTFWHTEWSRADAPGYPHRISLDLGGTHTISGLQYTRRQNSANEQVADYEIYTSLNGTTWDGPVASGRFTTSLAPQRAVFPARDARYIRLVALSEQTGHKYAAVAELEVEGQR

[8] = tested on: veratridine binding site of the VGSC (neurotoxin site 2)
[9] = target: neuraminidase from Vibrio cholera (Vibrio cholerae serotype O1, UniProt P0C6E9); experiment: Neuraminidase inhibition; format: biochemical; settings: Vibrio cholera enzyme; up to 50 μM
[10] = target: voltage-gated Na+ (NaV1.2) channel (Homo sapiens, UniProt Q99250); experiment: Voltage-gated Na+ channel inhibition/activation; format: cell-based; settings: ASPA administered alone, up to micromolar concentrations
[11] = target: proteinase K (Parengyodontium album, UniProt P06873); experiment: Proteolytic stability against proteinase K; format: in vitro ADME; settings: proteinase K from Tritirachium album; 50 °C, up to 48 h
[12] = tested on: mice; experiment: Toxicity in mice; format: in vivo; settings: i.p. 40 μg/g
[13] = tested on: neuraminidase from Clostridium perfringens; format: biochemical
[14] = tested on: bacterial neuraminidases; settings: cited from earlier work

Sequence of neuraminidase from Vibrio cholera (P0C6E9 25-781): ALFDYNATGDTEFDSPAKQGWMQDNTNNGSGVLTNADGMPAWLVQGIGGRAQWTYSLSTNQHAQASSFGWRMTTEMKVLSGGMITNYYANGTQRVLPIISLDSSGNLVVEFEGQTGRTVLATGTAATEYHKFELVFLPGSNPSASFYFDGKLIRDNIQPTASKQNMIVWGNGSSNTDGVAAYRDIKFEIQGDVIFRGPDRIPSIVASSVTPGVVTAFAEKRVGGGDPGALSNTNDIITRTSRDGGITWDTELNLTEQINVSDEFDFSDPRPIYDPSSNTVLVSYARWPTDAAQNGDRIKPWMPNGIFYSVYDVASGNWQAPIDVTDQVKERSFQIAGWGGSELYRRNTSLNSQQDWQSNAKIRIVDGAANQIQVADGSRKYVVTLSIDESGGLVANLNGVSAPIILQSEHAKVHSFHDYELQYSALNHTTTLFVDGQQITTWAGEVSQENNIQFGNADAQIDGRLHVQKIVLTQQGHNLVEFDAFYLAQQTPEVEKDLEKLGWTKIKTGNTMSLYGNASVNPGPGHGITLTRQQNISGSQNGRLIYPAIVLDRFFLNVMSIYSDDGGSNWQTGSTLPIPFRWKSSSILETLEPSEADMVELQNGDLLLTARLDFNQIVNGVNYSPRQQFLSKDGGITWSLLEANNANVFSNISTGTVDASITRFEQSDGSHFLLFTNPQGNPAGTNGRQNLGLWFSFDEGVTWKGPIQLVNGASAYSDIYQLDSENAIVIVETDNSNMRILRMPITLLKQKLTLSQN
Sequence of proteinase K (P06873 106-384): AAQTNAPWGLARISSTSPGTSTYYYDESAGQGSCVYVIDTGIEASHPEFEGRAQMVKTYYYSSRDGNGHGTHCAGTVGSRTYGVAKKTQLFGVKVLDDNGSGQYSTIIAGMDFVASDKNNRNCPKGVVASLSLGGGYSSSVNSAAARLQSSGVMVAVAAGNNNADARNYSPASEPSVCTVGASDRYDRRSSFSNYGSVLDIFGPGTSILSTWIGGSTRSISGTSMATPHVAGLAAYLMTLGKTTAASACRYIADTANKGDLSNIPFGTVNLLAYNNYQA
Sequence of voltage-gated Na+ (NaV1.2) channel (Q99250 whole entry): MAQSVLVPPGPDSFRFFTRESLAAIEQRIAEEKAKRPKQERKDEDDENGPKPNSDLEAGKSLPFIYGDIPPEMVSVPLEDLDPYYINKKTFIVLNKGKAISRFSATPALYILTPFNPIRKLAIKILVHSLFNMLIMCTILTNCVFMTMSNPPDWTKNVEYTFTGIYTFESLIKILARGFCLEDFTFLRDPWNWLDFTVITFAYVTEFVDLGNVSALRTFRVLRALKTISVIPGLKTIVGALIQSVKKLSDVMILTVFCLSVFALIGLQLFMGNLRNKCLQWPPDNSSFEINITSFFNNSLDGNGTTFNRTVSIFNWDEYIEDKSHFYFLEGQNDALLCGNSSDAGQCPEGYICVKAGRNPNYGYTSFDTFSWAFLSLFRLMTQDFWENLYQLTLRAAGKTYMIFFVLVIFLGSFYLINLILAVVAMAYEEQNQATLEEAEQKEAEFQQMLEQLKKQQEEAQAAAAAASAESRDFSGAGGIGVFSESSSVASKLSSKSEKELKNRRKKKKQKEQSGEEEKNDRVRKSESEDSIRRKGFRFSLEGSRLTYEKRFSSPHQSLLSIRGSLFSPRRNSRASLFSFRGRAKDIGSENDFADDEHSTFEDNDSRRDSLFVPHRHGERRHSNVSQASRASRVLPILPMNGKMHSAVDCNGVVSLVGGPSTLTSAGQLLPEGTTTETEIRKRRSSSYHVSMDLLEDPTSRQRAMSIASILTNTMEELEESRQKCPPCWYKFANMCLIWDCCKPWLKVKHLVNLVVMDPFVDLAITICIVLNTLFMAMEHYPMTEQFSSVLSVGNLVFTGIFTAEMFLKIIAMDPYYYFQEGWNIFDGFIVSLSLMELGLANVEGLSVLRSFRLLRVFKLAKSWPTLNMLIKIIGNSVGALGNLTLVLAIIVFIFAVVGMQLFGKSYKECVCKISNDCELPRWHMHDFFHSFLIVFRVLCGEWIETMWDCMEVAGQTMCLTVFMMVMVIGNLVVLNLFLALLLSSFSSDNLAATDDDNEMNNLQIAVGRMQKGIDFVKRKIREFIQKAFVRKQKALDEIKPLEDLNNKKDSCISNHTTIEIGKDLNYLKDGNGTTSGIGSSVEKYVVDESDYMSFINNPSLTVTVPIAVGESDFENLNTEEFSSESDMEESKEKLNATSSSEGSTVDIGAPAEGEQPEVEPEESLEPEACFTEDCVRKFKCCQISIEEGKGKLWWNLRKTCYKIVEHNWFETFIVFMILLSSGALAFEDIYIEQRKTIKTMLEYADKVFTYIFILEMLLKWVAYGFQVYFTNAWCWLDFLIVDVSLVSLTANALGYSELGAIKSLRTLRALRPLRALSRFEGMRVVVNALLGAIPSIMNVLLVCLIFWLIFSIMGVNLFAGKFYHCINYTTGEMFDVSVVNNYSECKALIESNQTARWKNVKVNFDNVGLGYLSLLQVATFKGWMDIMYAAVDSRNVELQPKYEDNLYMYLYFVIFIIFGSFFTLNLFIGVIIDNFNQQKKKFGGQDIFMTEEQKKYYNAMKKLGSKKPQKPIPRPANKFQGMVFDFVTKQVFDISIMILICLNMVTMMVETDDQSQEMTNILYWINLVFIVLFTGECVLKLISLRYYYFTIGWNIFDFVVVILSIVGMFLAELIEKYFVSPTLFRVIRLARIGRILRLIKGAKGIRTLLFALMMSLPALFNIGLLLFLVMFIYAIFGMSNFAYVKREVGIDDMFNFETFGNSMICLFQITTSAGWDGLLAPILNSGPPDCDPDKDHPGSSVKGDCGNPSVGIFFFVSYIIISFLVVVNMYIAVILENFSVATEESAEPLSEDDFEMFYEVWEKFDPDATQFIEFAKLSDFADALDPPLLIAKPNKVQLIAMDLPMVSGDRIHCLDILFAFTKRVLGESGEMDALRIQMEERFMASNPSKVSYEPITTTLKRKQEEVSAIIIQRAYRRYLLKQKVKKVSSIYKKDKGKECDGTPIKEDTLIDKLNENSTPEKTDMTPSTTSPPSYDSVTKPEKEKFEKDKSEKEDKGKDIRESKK

Row | Molecule | Neuraminidase inhibition [1] | Neuraminidase inhibition [2] | Effect on oscillation frequency or amplitude of neuronal Ca2+ currents [3] | Toxicity or behavior changes [4] | Proteolytic stability against thermolysin [5] | Inhibition or activation of Cav1.2 [6] | Neuraminidase inhibition [7] | Allosteric interaction with the veratridine binding site of the VGSC [8] | Neuraminidase inhibition [9] | Inhibition or activation of NaV1.2 [10] | Proteolytic stability against proteinase K [11] | Toxicity or behavior changes [12] | Neuraminidase inhibition [13] | Inhibition of bacterial neuraminidases [14]
1 | CC[C@H](C)[C@@H]1NC(=O)[C@@H]2CSSC[C@@H]3NC(=O)[C@H](CO)NC(=O)[C@H](CCC(=O)O)NC(=O)CNC(=O)[C@H](CCC(=O)O)NC(=O)[C@H](Cc4ccccc4)NC(=O)[C@H](C)NC(=O)[C@@H](NC(=O)CNC(=O)[C@@H]4CCC(=O)N4)CSSC[C@H](NC(=O)[C@H](CSSC[C@@H](C(=O)N[C@@H](Cc4ccc(O)cc4)C(=O)N[C@@H](Cc4ccc(O)cc4)C(=O)N[C@@H](CC(C)C)C(=O)O)NC(=O)[C@H]([C@@H](C)O)NC(=O)CNC(=O)[C@H](CC(=O)O)NC(=O)[C@@H]4CCCN4C(=O)[C@H](CC(N)=O)NC(=O)CNC(=O)[C@@H]4CCCN4C1=O)NC(=O)[C@@H]1CCCN1C(=O)[C@H](Cc1ccc(O)cc1)NC(=O)[C@H](Cc1ccccc1)NC(=O)[C@H](CCC(N)=O)NC(=O)[C@H](C(C)C)NC(=O)[C@H](CC(N)=O)NC3=O)C(=O)N1CCC[C@H]1C(=O)NCC(=O)N[C@@H](CC(C)C)C(=O)NCC(=O)N[C@@H](CC(C)C)C(=O)N[C@@H]([C@@H](C)O)C(=O)N2 [ASPA, Asteropsin A] ([pGlu]GCAFEGESCNVQFYPCCPGLGLTCIPGNPDGTCYYL-OH; disulfide 3-18, 10-25, 17-34; C-terminus assumed) | no inhibition | no inhibition | did not modify | no toxicity or behavior changes were observed | extraordinary proteolytic stability | Neither the inhibition nor the activation | no inhibition | not observed | no inhibition | Neither the inhibition nor the activation | extraordinary proteolytic stability | no toxicity or behavior changes were observed | no inhibition | 
2 | asteropine A [APA] |  |  |  |  |  |  |  |  |  |  |  |  |  | potent competitive inhibitor
